In patent publication US8541584B2, “3-(1,2,3-triazol-4-yl) pyrrolo [2,3-b] pyridine derivatives” (Merck Patent GmbH, priority 2009, dated 2013):

Assays:
[1] = tested on: PDK1 kinase activity (P-T308-PKB) in PC3 cells; assay: Cellular testing of PDK1 kinase inhibitors (Luminex assay, P-T308-PKB in PC3 cells); type: cell-based; conditions: Homo sapiens, PC-3, 0.5 h, serum-free, 30 min with test substance
Procedure: Description of the Method for Cellular Testing of PDK1 Kinase Inhibitors
The cellular assay for determination of the PDK1 kinase activity is performed as Luminex assay in the 96-well format. PC3 cells are sown at 20,000 cells per well in 100 μl of medium (45% of […]/45% of Ham's F12/10% of FCS) and incubated under serum-free conditions on the following day for 30 min with serial dilution of the test substance (7 concentrations). The cells are subsequently lysed using 90 μl of lysis buffer (20 mM Tris/HCl pH 8.0, 150 mM NaCl, 1% of NP40, 10% of glycerol, 1% of phosphatase inhibitor I, 1% of phosphatase inhibitor II, 0.1% of protease inhibitor Cocktail III, 0.01% of benzonase) per well, and the lysates are separated off from insoluble cell constituents by means of centrifugation through a 96-well filter plate (0.65 μm). The lysates are incubated overnight at 4° C. with shaking with Luminex beads to which an anti-total PKB antibody has been coupled. Detection is carried out on the following day by addition of a P-T308-PKB antibody and a species-specific PE-labelled secondary antibody. The determination of P-T308-PKB is carried out by measurement in the Luminex100 instrument by determination of 100 events per cavity in a measurement time of 60 sec. As pharmacological blank, the signals obtained from cells which have been treated with 10 μM staurosporin are subtracted from all other batches. The control value used for maximum phosphorylation of PKB on T308 are the signals from cells which have been treated only with the solvent (0.3% of DMSO). The values of the batches treated with test substance are calculated from this as percent of control, and IC50 values are determined by means of RS1.

[2] = target: T1, TANK binding kinase (TBK1) (Homo sapiens, UniProt Q9UHD2); assay: TBK1 kinase test (384-well flashplate); type: biochemical; conditions: 0.6 nM TBK1, 10 μM ATP, 30° C., 120 min
T1 sequence (Q9UHD2 1-729): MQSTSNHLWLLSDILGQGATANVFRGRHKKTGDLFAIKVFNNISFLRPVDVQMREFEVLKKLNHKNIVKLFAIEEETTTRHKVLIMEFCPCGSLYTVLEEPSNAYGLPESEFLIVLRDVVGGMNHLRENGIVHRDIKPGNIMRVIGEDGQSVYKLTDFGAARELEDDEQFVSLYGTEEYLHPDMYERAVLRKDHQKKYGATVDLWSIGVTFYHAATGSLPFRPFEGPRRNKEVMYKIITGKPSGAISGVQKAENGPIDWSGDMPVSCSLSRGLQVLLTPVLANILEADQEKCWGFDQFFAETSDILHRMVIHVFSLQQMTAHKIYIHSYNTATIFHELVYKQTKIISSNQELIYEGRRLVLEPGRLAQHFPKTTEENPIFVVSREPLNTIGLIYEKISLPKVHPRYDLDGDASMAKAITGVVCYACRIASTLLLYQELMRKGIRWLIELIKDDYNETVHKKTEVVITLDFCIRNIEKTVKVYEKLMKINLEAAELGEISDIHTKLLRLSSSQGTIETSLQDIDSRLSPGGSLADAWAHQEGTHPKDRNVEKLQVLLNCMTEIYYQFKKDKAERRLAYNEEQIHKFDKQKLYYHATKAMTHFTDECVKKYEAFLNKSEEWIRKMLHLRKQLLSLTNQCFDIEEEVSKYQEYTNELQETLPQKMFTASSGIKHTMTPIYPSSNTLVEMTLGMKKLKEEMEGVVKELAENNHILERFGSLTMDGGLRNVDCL
Procedure: The kinase assay is performed as 384-well flashplate assay. 0.6 nM TANK binding kinase (TBK1), 800 nM biotinylated MELK-derived peptide (biotin-Ah-Ah-[…]) and 10 μM ATP (with 0.25 μCi of ^33P-ATP/well) are incubated in a total volume of 50 μl (10 mM MOPS, 10 mM magnesium acetate, 0.1 mM EGTA, 1 mM DTT, 0.02% of Brij35, 0.1% of BSA, pH 7.5) with or without test substance at 30° C. for 120 min. The reaction is stopped using 25 μl of 200 mM EDTA solution, filtered off with suction after 30 min at room temperature, and the wells are washed 3 times with 100 μl of 0.9% NaCl solution. The non-specific proportion of the kinase reaction (blank) is determined using 100 nM staurosporine. Radioactivity is measured in the Topcount. IC50 values are calculated using RS1.

| Structure (SMILES) | IC50 [1] [nM] | IC50 [2] [nM] |
| --- | --- | --- |
| Cc1cccc(Cn2cc(-c3c[nH]c4ncc(-c5cnn(C)c5)cc34)nn2)c1 [Compound A7, 3-[1-(3-Methylbenzyl)-1H-1,2,3-triazol-4-yl]-5-(1-methyl-1H-pyrazol-4-yl)-1H-pyrrolo[2,3-b]pyridine] | 1000 to 10000 | 0.5 to 1000 |
| Cn1cc(-c2cnc3[nH]cc(-c4cn(Cc5ccncc5)nn4)c3c2)cn1 [Compound A9, 5-(1-Methyl-1H-pyrazol-4-yl)-3-(1-pyridin-4-ylmethyl-1H-1,2,3-triazol-4-yl)-1H-pyrrolo-[2,3-b]pyridine] | 1000 to 10000 | 0.5 to 1000 |
| Cn1cc(-c2cnc3[nH]cc(-c4cn(Cc5ccccc5F)nn4)c3c2)cn1 [Compound A17, 3-[1-(2-Fluorobenzyl)-1H-1,2,3-triazol-4-yl]-5-(1-methyl-1H-pyrazol-4-yl)-1H-pyrrolo-[2,3-b]pyridine] | 0.5 to 1000 | 0.5 to 1000 |
| CC(c1ccccc1C(F)(F)F)n1cc(-c2c[nH]c3ncc(-c4cnn(C)c4)cc23)nn1 (stereo not drawn) [Compound A20, 5-(1-Methyl-1H-pyrazol-4-yl)-3-{1-[1-(2-trifluoromethylphenyl)ethyl]-1H-1,2,3-triazol-4-yl}-1H-pyrrolo[2,3-b]pyridine] | 1000 to 10000 | 0.5 to 1000 |
| Cn1cc(-c2cnc3[nH]cc(-c4cn(Cc5cccc(F)c5F)nn4)c3c2)cn1 [Compound A25, 3-[1-(2,3-Difluorobenzyl)-1H-1,2,3-triazol-4-yl]-5-(1-methyl-1H-pyrazol-4-yl)-1H-pyrrolo-[2,3-b]pyridine] | 0.5 to 1000 | 0.5 to 1000 |
| Cn1cc(-c2cnc3[nH]cc(-c4cn(Cc5ccc6ncccc6c5)nn4)c3c2)cn1 [Compound A29, 6-{4-[5-(1-Methyl-1H-pyrazol-4-yl)-1H-pyrrolo[2,3-b]pyridin-3-yl]-1,2,3-triazol-1-ylmethyl}quinoline] | 1000 to 10000 | 0.5 to 1000 |
